Reference: patent US12310934B2, “Methods of treatment of spontaneous preterm birth” (The Regents of the University of California, priority 2019, dated 2025)
Entries after “also recorded” stand apart in the source; their conditions may differ.

What was measured:
preterm birth = details: pregnant women, literature studies; cited from earlier work
[1] = tested on: LPS-induced fetal wastage in pregnant mice; test: LPS-induced inflammation mouse model of fetal wastage; type: in vivo; details: 3× drug + LPS-100 compared with LPS-100 alone
Source text: FIG. 3A and FIG. 3B depict results from LPS-induced inflammation mouse model of fetal wastage. Circles represent results from independent mouse pregnancies. Error bars represent mean ±SD. Comparisons were made using the Student's two-sided t-test. […] FIG. 3B: The LPS-100 group compared to the P4 positive control group (3×P4+LPS-100) and the lansoprazole treatment group (3×lansoprazole+LPS-100).
Statistical Analysis. Reversal scores were generated for sPTB-drug pairs using a non-parametric, rank-based method based on the Kolgomorov-Smirnov test. Reversal score p-values were obtained by comparing to a distribution of 100,000 random scores and then adjusted via FDR for multiple comparisons. […] To ensure that the significance of the score is specific to the drug in question, for one candidate drug, lansoprazole, we also compared 1,000 random input signatures to the lansoprazole profile. […] For testing the distributions in the mouse model studies, comparisons were made using the 2-tailed Student's t-test and adjusted via FDR for multiple comparisons. A P value less than 0.05 was considered significant.
Inflammation-induced mouse model validation of lansoprazole. Despite having the highest reversal score, cefotaxime shares few protein interactions. Lansoprazole has the next highest reversal score. Moreover, lansoprazole is available over-the-counter, whereas cefotaxime requires a prescription. […]

Row | Structure (SMILES) | rate of preterm birth in past studies (preterm birth) | number of viable fetuses at E12.5 [1] | number of viable fetuses at E12.5 ([1]; listed as P4)
1 | Clc1ccccc1C(c1ccccc1)(c1ccccc1)n1ccnc1 [clotrimazole] | significant reduction in the rate of PTB | – | –
2 | Nc1nc2ncc(CNc3ccc(C(=O)N[C@@H](CCC(=O)O)C(=O)O)cc3)nc2c(=O)[nH]1 [folic acid] | possible reduction of preterm birth | – | –
3 | Cc1c(OCC(F)(F)F)ccnc1C[S+]([O-])c1nc2ccccc2[nH]1 (stereo not drawn) [lansoprazole] | – | significantly effective in recovering the number of viable fetuses; also recorded: significantly (P<0.05) increase the number of viable fetuses | –
4 | CN(C)C(=N)N=C(N)N [metformin] | reduce the rate of PTB compared with placebo | – | –
5 | CC(=O)[C@H]1CC[C@H]2[C@@H]3CCC4=CC(=O)CC[C@]4(C)[C@H]3CC[C@]12C [progesterone] | effective in reducing the rate of sPTB | – | showed some effectiveness at recovering the number of viable fetuses
